Laboratory results as given in patent US10907168B2, “Jasmonic acid pathway activator” (MEDICAGO INC., priority 2015, dated 2021).

Tests used:
Format in all cases: in vivo, Nicotiana benthamiana
[1] = test system: trypsin-like S1 Ser proteases; experiment: Protease assay in leaf crude extracts, Z-Arg-MCA substrate; details: 0.5 and 1 mM doses, seven days post-treatment
Procedure: Forty-two day-old N. benthamiana plants grown in greenhouse were used for the experiments. Each plant was sprayed evenly with 50 ml of 0.5 mM, 1 mM or 2 mM MeJA in water containing 0.1% (v/v) Triton X-100 (Sigma-Aldrich, Mississauga ON, Canada), or with 50 ml of 1 mM arachidonic acid (Girard et al., 2007) in the same solvent, and transferred for seven days in a Conviron growth chamber (Conviron, Winnipeg MB, Canada). Plants sprayed with 50 ml of 0.1% (v/v) Triton X-100 in water were used in parallel as negative controls to avoid confounding effects due to experimental conditions. […]
Whole leaf proteins were extracted from three 1-cm^2 leaf discs in 400 μl of ice-cold 50 mM Tris-HCl, pH 7.5, containing 150 mM NaCl, by disrupting the leaf samples with tungsten carbide beads (Qiagen, Mississauga ON, Canada) in a Mini-Beadbeater apparatus (BioSpec, Bartlesville Okla., USA). […] RuBisCO small subunit was detected using polyclonal IgG raised in rabbit against a synthetic small subunit peptide (Agrisera, Vännäs, Sweden) and alkaline phosphatase-conjugated goat anti-rabbit IgG as secondary antibodies (Sigma-Aldrich). RuBisCO large subunit was detected using polyclonal IgG raised in hen against a synthetic large subunit peptide (Agrisera) and alkaline phosphatase-conjugated goat anti-chicken IgG as secondary antibodies (Sigma-Aldrich). […]

[2] = test system: cathepsin D/E-like A1 Asp proteases; experiment: Protease assay in leaf crude extracts, MOCAc substrate; details: seven days post-treatment
C5-1 antibody = C5-1 antibody immunodetection after non-reducing SDS-PAGE; details: agroinfiltrated leaves; treated 24 h before infiltration; 35S-type C5-1 vector
[3] = test system: C5-1 light and heavy chain mRNA; experiment: Real-time RT PCR of C5-1 light and heavy chain transcripts; details: 1 mM spray, 24 h before infiltration

SMILES: CC/C=C\C[C@H]1C(=O)CC[C@@H]1CC(=O)OC [MeJA, methyl jasmonate]
- trypsin-like activity [1]: minimal or no increase in activity
- cathepsin D/E-like activity ([2]; agroinfiltrated leaves): also observed in agroinfiltrated leaves
- cathepsin D/E-like activity ([2]; uninfiltrated plants, P<0.001): dose-dependent decrease
- C5-1 protein band patterns on immunoblot compared to control plants (C5-1 antibody): increased intensity
- mRNA transcript numbers for C5-1 light and heavy chains compared with control leaf extracts [3]: about twofold
